Laboratory results reported in PMC11191095, “QSAR Reveals Decreased Lipophilicity of Polar Residues Determines the Selectivity of Antimicrobial Peptide Activity” (ACS Omega, 2024).
Where a SMILES comes first, the peptide text is derived from it.

How the values were obtained:
Assay in all cases: microbe, parasite or virus in culture
[1] = tested on: E. coli LEC001; format: cell-based, Escherichia coli
Method: (§1) Antimicrobial activity was evaluated against a panel of 18 pathogens consisting of eight Gram-negative strains (E. coli NCTC 12923, E. coli LEC001, Pseudomonas aeruginosa PAO1, P. aeruginosa NCTC 13437, Acinetobacter baumannii ATCC 17978, A. baumannii AYE, Klebsiella pneumoniae M6, K. pneumoniae NCTC 13368), four Gram-positive strains (Staphylococcus aureus ATCC 9144, S. aureus NCTC 13616, S. aureus USA300, S. aureus 1199B) and six fungi (Candida auris TDG 1912, C. albicans NCPF 8018, C. krusei NCPF 3876, C. tropicalis NCPF 8760, and C. parapsilosis NCPF 3209). Pathogens were grown in noncation adjusted Mueller Hinton broth (MHB, for bacteria) or Roswell Park Memorial Institute (RPMI 1640) + 2% glucose (for fungi) at 37 °C with 180 rpm shaking and maintained on solid media (tryptic soy agar for bacteria and Sabouraud dextrose agar for fungi). For an antibiogram, see Suppl.
(§2) The 46 peptides were serially diluted (128 to 2 μg/mL) in media down polypropylene 96-well plates. Bacteria or fungi, diluted from an overnight culture to an OD600 of 0.01, were added to the serially diluted peptides at a 1:1 ratio resulting in a starting cell density of ∼5 × 10^5 CFU/mL. Plates were incubated at 37 °C for 20 h, and the optical density was determined spectrophotometrically at 600 nm. Minimum inhibition concentrations (MICs) were determined from a minimum of three biological repeats and are reported in μg/mL as well as μM. […] The MIC50 or MIC90 is defined as the lowest peptide concentration that results in 50% or 90% growth inhibition over a 20 h treatment period, respectively.

[2] = tested on: E. coli NCTC 12923; format: cell-based, Escherichia coli
Method: as §1, §2

[3] = tested on: P. aeruginosa NCTC 13437; format: cell-based, Pseudomonas aeruginosa
Method: as §1, §2

[4] = tested on: P. aeruginosa PAO1; format: cell-based, Pseudomonas aeruginosa
Method: as §1, §2

[5] = tested on: A. baumannii ATCC 17978; format: cell-based, Acinetobacter baumannii
Method: as §1, §2

[6] = tested on: A. baumannii AYE; format: cell-based, Acinetobacter baumannii; conditions: 20 h
Method: as §1, §2

[7] = tested on: K. pneumoniae M6; format: cell-based, Klebsiella pneumoniae
Method: as §1, §2

[8] = tested on: K. pneumoniae NCTC 13368; format: cell-based, Klebsiella pneumoniae
Method: as §1, §2

[9] = tested on: S. aureus (MRSA) NCTC 13616; format: cell-based, Staphylococcus aureus
Method: as §1, §2

[10] = tested on: S. aureus (MRSA) USA300; format: cell-based, Staphylococcus aureus; conditions: USA300, 20 h
Method: as §1, §2

[11] = tested on: S. aureus (MSSA) ATCC 9144; format: cell-based, Staphylococcus aureus; conditions: ATCC 9144, 20 h
Method: as §1, §2

[12] = tested on: C. albicans NCPF 3281; format: cell-based; conditions: NCPF 3281, 20 h
Method: as §1, §2

[13] = tested on: C. glabrata NCPF 8018; format: cell-based; conditions: NCPF 8018, 20 h
Method: as §1, §2

[14] = tested on: C. krusei NCPF 3876; format: cell-based; conditions: NCPF 3876, 20 h
Method: as §1, §2

[15] = tested on: C. parapsilosis NCPF 3209; format: cell-based; conditions: NCPF 3209, 20 h
Method: as §1, §2

[16] = tested on: C. tropicalis NCPF 8760; format: cell-based; conditions: NCPF 8760, 20 h
Method: as §1, §2

[17] = tested on: C. auris TDG 1912; format: cell-based, Candida auris; conditions: TDG 1912, 20 h
Method: as §1, §2

[18] = tested on: S. aureus (MRSA) 1199B; format: cell-based, Staphylococcus aureus; conditions: S. aureus (MRSA) 1199B (R); shown in µM
Method: as §1, §2

Molecule | Modal MIC ([1]; LEC001, 20 h) [µM] | Modal MIC ([2]; NCTC 12923, 20 h) [µM] | Modal MIC ([3]; NCTC 13437, 20 h) [µM] | Modal MIC ([5]; ATCC 17978, 20 h) [µM] | Modal MIC ([6]; AYE) [µM] | Modal MIC ([7]; M6, 20 h) [µM] | Modal MIC ([8]; NCTC 13368, 20 h) [µM] | Modal MIC ([9]; NCTC 13616, 20 h) [µM] | Modal MIC [10] [µM] | Modal MIC [11] [µM] | Modal MIC50 [12] [µM] | Modal MIC90 [12] [µM] | Modal MIC50 [13] [µM] | Modal MIC90 [13] [µM] | Modal MIC50 [14] [µM] | Modal MIC90 [14] [µM] | Modal MIC50 [15] [µM] | Modal MIC90 [15] [µM] | Modal MIC50 [16] [µM] | Modal MIC90 [16] [µM] | also measured
CC[C@H](C)[C@H](NC(=O)[C@H](CCCCN)NC(=O)[C@H](CO)NC(=O)[C@H](C)NC(=O)[C@H](Cc1c[nH]c2ccccc12)NC(=O)CN)C(=O)NCC(=O)N[C@@H](CCC(N)=O)C(=O)N[C@H](C(=O)N[C@@H](CC(C)C)C(=O)NCC(=O)N[C@@H](CCCCN)C(=O)N[C@H](C(=O)N[C@@H](C)C(=O)N[C@@H](CCCCN)C(=O)N[C@H](C(=O)NCC(=O)N[C@@H](CC(C)C)C(=O)N[C@@H](CCCCN)C(=O)N[C@@H](CCC(=O)O)C(=O)N[C@@H](CC(C)C)C(=O)N[C@H](C(=O)N[C@@H](CCC(N)=O)C(=O)N1CCC[C@H]1C(=O)N[C@@H](CCCCN)C(=O)O)[C@@H](C)CC)C(C)C)[C@@H](C)CC)[C@@H](C)O [XPF] (H-GWASKIGQTLGKIAKVGLKELIQPK-OH) | 1.5 | 1.5 | 46.5 | 1.5 | 1.5 | 23.2 | 11.6 | 46.5 | 46.5 | 11.6 | > 46.5 | > 46.5 | > 46.5 | > 46.5 | > 46.5 | > 46.5 | > 46.5 | > 46.5 | 11.6 | 11.6 | Modal MIC ([4]; PAO1, 20 h): 46.5 µM
CC[C@H](C)[C@H](NC(=O)[C@H](CCCCN)NC(=O)[C@H](CC(C)C)NC(=O)CNC(=O)[C@H](C)NC(=O)[C@H](CCCCN)NC(=O)[C@H](CC(C)C)NC(=O)[C@H](C)NC(=O)[C@H](CCCCN)NC(=O)CNC(=O)[C@H](CC(C)C)NC(=O)[C@H](Cc1ccccc1)NC(=O)[C@H](CO)NC(=O)[C@H](C)NC(=O)[C@H](CC(C)C)NC(=O)CN)C(=O)NCC(=O)N[C@@H](CO)C(=O)N[C@@H](Cc1c[nH]cn1)C(=O)N[C@@H](CC(C)C)C(=O)N[C@@H](CC(C)C)C(=O)NCC(=O)NCC(=O)N[C@@H](C)C(=O)N1CCC[C@H]1C(=O)N[C@@H](CCC(N)=O)C(=O)O [CPF-P2] (H-GLASFLGKALKAGLKIGSHLLGGAPQ-OH) | 5.8 | 2.9 | 46 | 1.4 | 2.9 | 46 | 46 | 1.4 | 2.9 | 1.4 | > 46 | > 46 | > 46 | > 46 | 23 | 23 | > 46 | > 46 | 5.8 | 5.8 | Modal MIC50 [17]: > 46 µM; Modal MIC90 [17]: > 46 µM
CC[C@H](C)[C@H](NC(=O)CNC(=O)[C@H](CO)NC(=O)[C@@H](N)Cc1c[nH]c2ccccc12)C(=O)N[C@@H](CCCNC(=N)N)C(=O)NCC(=O)N[C@@H](Cc1ccc(O)cc1)C(=O)N[C@@H](CCCCN)C(=O)NCC(=O)NCC(=O)N[C@@H](Cc1ccc(O)cc1)C(=O)N[C@@H](CCCCN)C(=O)NCC(=O)N[C@@H](CC(C)C)C(=O)N[C@@H](Cc1ccccc1)C(=O)N[C@@H](CCCCN)C(=O)N[C@@H](CCC(N)=O)C(=O)N[C@H](C(=O)N[C@@H](CC(N)=O)C(=O)N[C@@H](Cc1ccc(O)cc1)C(N)=O)[C@@H](C)O [W-OmC-Ca] (H-WSGIRGYKGGYKGLFKQTNY-NH2) | – | 54.3 | – | 54.3 | 54.3 | – | – | – | – | 54.3 | > 54.3 | > 54.3 | > 54.3 | > 54.3 | > 54.3 | > 54.3 | > 54.3 | > 54.3 | > 54.3 | > 54.3 | –
Colistin [reference compound] | – | – | – | – | – | – | – | – | – | – | – | – | – | – | – | – | – | – | – | – | Modal MIC ([1]; E. coli LEC001 (R), MHB, 37 °C, 20 h, OD600, min. three biological repeats): 2 µg/mL; Modal MIC ([2]; E. coli NCTC 12923 (S), MHB, ~5×10^5 CFU/mL, 37 °C, 20 h, OD600, min. three biological repeats): 0.0625 µg/mL; Modal MIC ([3]; P. aeruginosa NCTC 13437 (R), MHB, 37 °C, 20 h, OD600, min. three biological repeats): 4 µg/mL; Modal MIC ([4]; P. aeruginosa PAO1 (S), MHB, 37 °C, 20 h, OD600, min. three biological repeats): 2 µg/mL; Modal MIC ([5]; A. baumannii ATCC 17978 (S), MHB, 37 °C, 20 h, OD600, min. three biological repeats): 1 µg/mL; Modal MIC ([6]; A. baumannii AYE (R), MHB, 37 °C, OD600, min. three biological repeats): 1 µg/mL; Modal MIC ([7]; K. pneumoniae M6 (S), MHB, 37 °C, 20 h, OD600, min. three biological repeats): 2 µg/mL; Modal MIC ([8]; K. pneumoniae NCTC 13368 (R), MHB, 37 °C, 20 h, OD600, min. three biological repeats): 1 µg/mL; Modal MIC ([9]; S. aureus (MRSA) NCTC 13616 (R), MHB, 37 °C, 20 h, OD600, min. three biological repeats): > 128 µg/mL
CC[C@H](C)[C@H](NC(=O)CNC(=O)[C@H](CCCCN)NC(=O)[C@H](Cc1c[nH]c2ccccc12)NC(=O)[C@H](Cc1c[nH]c2ccccc12)NC(=O)[C@@H](N)Cc1c[nH]c2ccccc12)C(=O)N[C@@H](CCCNC(=N)N)C(=O)NCC(=O)N[C@@H](Cc1ccc(O)cc1)C(=O)N[C@@H](CCCCN)C(=O)NCC(=O)NCC(=O)N[C@@H](Cc1ccc(O)cc1)C(=O)N[C@@H](CCCCN)C(=O)NCC(=O)N[C@@H](C)C(=O)N[C@@H](Cc1ccccc1)C(=O)N[C@@H](CCCCN)C(=O)N[C@@H](CCC(N)=O)C(=O)N[C@H](C(=O)N[C@@H](CCCCN)C(=O)N[C@@H](Cc1ccc(O)cc1)C(N)=O)[C@@H](C)O [W3(Os-C)a] (H-WWWKGIRGYKGGYKGAFKQTKY-NH2) | – | 23.5 | – | 11.7 | 5.9 | – | – | – | – | 11.7 | > 46.9 | > 46.9 | > 46.9 | > 46.9 | > 46.9 | > 46.9 | > 46.9 | > 46.9 | > 46.9 | > 46.9 | –
CC[C@H](C)[C@H](NC(=O)[C@H](CCCCN)NC(=O)[C@H](CC(C)C)NC(=O)CNC(=O)[C@H](C)NC(=O)[C@H](CCCCN)NC(=O)[C@H](CC(C)C)NC(=O)[C@H](C)NC(=O)[C@H](CCCCN)NC(=O)CNC(=O)[C@H](CC(C)C)NC(=O)[C@@H](N)Cc1ccccc1)C(=O)NCC(=O)N[C@@H](CO)C(=O)N[C@@H](Cc1c[nH]cn1)C(=O)N[C@@H](CC(C)C)C(N)=O [CPF-P2a] (H-FLGKALKAGLKIGSHL-NH2) | 37.1 | 18.6 | – | 18.6 | 37.1 | – | – | – | – | – | > 74 | > 74 | > 74 | > 74 | > 74 | > 74 | > 74 | > 74 | > 74 | > 74 | Modal MIC [18]: > 74 µM; Modal MIC50 [17]: > 74 µM; Modal MIC90 [17]: > 74 µM
